Data on 1 compound can be found in patent US20200009020A1, “Caries-Resistant Composite Resin” (Den-Mat Holdings, LLC, priority 2016, published 2020).

For one series, the system named is strep mutans. In words: Antimicrobial activity, modified AATCC TM 100-2012 for solid and composite materials. To be noted: 1.0% Wt. Fract. ZnO in a direct filling composite resin. Format: cell-based. As to the method:
(§1) Zinc oxide has been tested for antimicrobial activity in this invention according to a test that is based upon the International Standard AATCC TM 100-2012. The AATCC TM 100-2012 standard tests for microbial activity on textiles, so the test was modified for use on solid and composite materials.
(§2) As discussed above, microbial activity is measured using a modified AATCC TM 100-2012 standard for use on solid and composite materials.

The next series has as its system e. coli. Described as above. It is filed as cell-based. To be noted: 1.0% Wt. Fract. ZnO in a direct filling composite resin. As to the method:
as §1, §2

The next series concerns bacteria. In words: Antimicrobial activity, modified AATCC TM 100-2012 (general statement). Format: cell-based. The conditions noted are these: modified AATCC TM 100-2012 test.
Description: as §1

The nature of series [1]: Translucency of a direct filling composite resin. It is filed as physicochemical. The text has this: When zinc oxide is incorporated into a chemical for use in the oral cavity, it is typically incorporated for its function as an opacifying agent and can be added to a product for this function alone. However, there is a limit to the amount that can be added. Resins are esthetic restorative materials and require high translucency to be esthetic. For this reason, the amount of zinc oxide that may be added is limited to less than 0.8 wt. fract. See Table 5 for the upper limits of zinc oxide that can be incorporated into a direct fill composite resin while maintaining high translucency.
In Table 5, as the wt. fraction of Zinc Oxide is increased, the opacity also increases to a level that is not considered suitable for use as a dental composite resin for esthetic purposes. For esthetic purposes, the dental composite resin must be sufficiently translucent to mimic the appearance of natural dentin. Beyond this level, the opacity becomes too high and the restoration appears as chalky white.

Structures are written as SMILES.

In the case of `[O]=[Zn]` [Zinc Oxide, zinc oxide], in the series with strep mutans, the “% reduction of strep mutans” value worked out at 100%. In the series with e. coli, the “% Reduction of e coli” value is listed as 100%. Besides, the antimicrobial activity entry with bacteria is given as “effective in killing bacteria”. The figures for the Translucency result in series [1] (Wt. Fract. ZnO 0.8 in a direct filling composite resin) and in series [1] (Wt. Fract. ZnO 1.0 in a direct filling composite resin) were “pass” and “fail”, respectively.
